Values after ≈ are worked out from the molar mass of the structure shown. Read-outs that look alike come from different tables or passages of the source. Blank lines part the entries; values can stand above or below the molecule they belong to.
What was measured:
[1] = Dynamic vapor sorption (DVS); assay type: physicochemical; settings: for Hygroscopicity: general statement
Procedure: In a […] vapor sorption (DVS) experiment with Form A, the sample was first dried at 0% RH for 6 hours. Then, the relative humidity was cycled from 5% to 95% RH (sorption), then to 5% RH (desorption) at a constant temperature of 25° C., with a hold time of 60 minutes per step.
In three DVS experiments, the relative humidity was varied as follows:
Expt. 4: 0% for 6 h→5% for 1 h→15% for 1 h→25-85% gradient over 2 h→95 for 5 h RH

[2] = not given; remark: listed apart in the source
[3] = for solid form (XRPD, analyzed wet): slurry in Water, 25° C.
Procedure: In a second set of slurry experiments, the same amounts of Form A and Form B were weighed into 1.8 mL vials, and charged with a stirring bar. After addition of the solvent, the slurries were placed at 25° C. and 50° C., under stirring. Material from the slurries was sampled at the time points of 2, 4 and 14 days (sampling from the same vial per solvent and per temperature). These materials were analyzed wet by XRPD and digital imaging.

Variable humidity XRPD = assay type: physicochemical
Procedure: The temperature variation rate was 10° C./min.
The relative humidity was increased from the starting amount, brought up to the maximum, then dried back to the minimum value. The data collection time was 41 min at each step, time starting after equilibration of the relative humidity.
The peaks shifts were reversible at RH of about 30%. A sample of Form A was then exposed to 80% RH for 15 h. The peaks shifts had occurred after 90 min, and the extent of the shifts remained constant throughout the exposure at 80% RH for 15 h. Upon return to 10% RH, the peaks shifted to their original position. To investigate the amount of water adsorbed, a new sample of Form A was exposed for 2 h at 80% and a TGMS of this sample was measured.
For Form B, the relative humidity was measured at 30° C. The RH % values measured were 10, 30, 50, 60, 65, 70, 75, and 80%. […] At 80% RH the conversion to Form C was completed. Upon desorption, Form C dehydrates to Form B, starting at about 30% RH. At 10% RH the conversion to Form B was completed.
For Form C, a hydrate, the relative humidity was measured at 30° C. The experiment was performed starting at the maximum RH and dehydrated, then rehydrated back up to the maximum value. The RH % values measured were 10, 15, 20, 25, 30, 35, 40, 60, and 80%. Upon desorption, Form C dehydrated to Form B, starting at about 25% RH. At 10% RH, the conversion to Form B was complete. Upon sorption, Form B converted to Form C, starting at about 60% RH. At 80% RH the conversion to Form C was complete. The results are consistent with the corresponding experiments of Form B.
For Form D, a hydrate, the relative humidity was measured at 30° C. The experiment was performed starting at the maximum RH and dehydrated, then rehydrated back up to the maximum value. The RH % values measured were 10, 15, 20, 25, 30, 35, 40, 60, and 80%. […] Form C dehydrated to Form B, starting at about 20% RH. At 10% RH, the conversion to Form B was complete. Upon sorption, Form B converted to Form C, starting at about 40% RH. At 80% RH, the conversion to Form C was complete.

[4] = Dissolution rate from a powdered sample in water; assay type: physicochemical; settings: powder, 37° C.
Procedure: For determining the dissolution rate from a powdered sample, approximately 5 mg of brigatinib (Form A or B) was weighed into a 5 mL dissolution vial and the dissolution probe was inserted into the vial. Subsequently, 4 mL of water was added at the same time the measurement was initiated. The concentration was recorded for 20 h.
For measuring the dissolution rate from powder, the test was only performed in water for Forms A and B at 37° C., as the solubilities of Forms A and B were […] enough to permit detection.

[5] = Intrinsic dissolution rate (IDR); assay type: physicochemical
Procedure: For measuring the intrinsic dissolution rate (IDR), the starting material was tableted using a mini-IDR compression system (pION/Heath Scientific). For preparation of the tablets, approximately 11 mg of material was pressed in the cylindrical hole of a passivated stainless steel die, to a uniform, flat surface, with an exposed area of 0.072 cm^2. The pressure applied was approximately 50 bar for 3-5 min. The sample die was inserted in a cylindrical Teflon rotating disk carrier containing an embedded magnetic stirring bar at its base. The die/stirrer assembly was placed in a flat bottomed glass vial, ready for dissolution analysis.
The dissolution rate was measured in 20 mL of solvent (medium) and the path length of the UV meter was 2 mm. Applied stirring speed during measurement was 100 rpm. Measurements were performed at 20° C. and 37° C.
In the first series, the IDR of Forms A and B were determined in monoplicate. […] In FIGS. 30-37, the IDRs are plotted for comparison between the forms and the same medium or between various media and the same form. The IDR of each of Forms A and B in the various media increases with increasingly acidic media (see FIGS. 34-37).
In several cases, the results were counter-intuitive. […] The results of these additional experiments are plotted in FIGS. 38-42.

[6] = ground for 5 hours
Procedure: Grinding experiments were performed to obtain amorphous brigatinib. […] In a mechanical stress test via grinding, a sample of Form A was ground for 2, 3, 4 and 5 hours. Recovered solids were analyzed by XRPD and HPLC.
Grinding. Two grinding experiments were performed on samples of Form A with two different durations (30 and 60 min) at a frequency of 30 Hz. […] Mechanical stress via grinding experiments were also performed, with grinding times of 2, 3, 4, and 5 hours.

physchem [7] = settings: thermodynamic from solid
physchem [8] = settings: thermodynamic from solid; for solubility at 24 h: Solub
Procedure: (§1) For each medium, a standard 1.8 mL screw cap vial was charged with circa 40 mg of the starting material, 400 μl of solvent and a magnetic stirring bar (in the cases of chloroform and dichloromethane 200 μl of solvent were used). The vials were subsequently closed and equilibrated at the corresponding temperature for 24 h while stirring. The liquid part was retrieved with a syringe and filtered (0.5 micron filter); the isolated mother liquors were diluted to two dilutions selected according to the calibration curve. Quantities of the API in the diluted solutions were determined via HPLC analysis (DAD). […] Subsequently, the separated solids were measured wet by XRPD to confirm the solid form of which the solubility was measured.

[9] = 24 h
Procedure: as §1

Compression tests = assay type: physicochemical; settings: 3 and 6 ton/cm^2 for one minute
Procedure: Compression tests were performed on brigatinib Form A in order to determine whether pressure-induced phase transformations or loss of crystallinity occurred. The press used was an Atlas Manual 25 Ton Hydraulic Press (from SPECAC). Experiments were carried out at 3 and 6 ton/cm^2 for one minute in each case.

[10] = VT-XRPD, sample started as the labelled form
[11] = 30° C., sample started as the labelled form
[12] = 37 °C, pH 1, simulated gastric fluid

Temperature at which (partial) conversion to Form A was observed [10]: 150 °C | Temperature at which conversion to Form A was complete [10]: 155 °C | Temperature of solid-solid transition to Form A (ambient humidity, increasing temperature, not reversible): about 150 °C | Solid form after DVS cycle (XRPD) ([1]; Expt. 1 (5%→95%→65% RH)): hydrated Form C | Water adsorbed during sorption ([1]; Expt. 1 (5%→95%→65% RH), between 45-95% RH): 2.26 molecules of water | Change in mass during desorption after about 75% RH ([1]; Expt. 2): about 5.2% | Gained mass during desorption until about 25% RH ([1]; Expt. 2): 4.2% | Mass increase at 85% RH during desorption ([1]; Expt. 2): 17.4% | Maximum change in mass as water molecules ([1]; Expt. 2): 5.6 water molecules | Water molecules during desorption after about 75% RH ([1]; Expt. 2): about 1.7 water molecules | Water molecules during desorption until about 25% RH ([1]; Expt. 2): 1.4 water molecules | Solid form after DVS cycle (XRPD) ([1]; Expt. 2 (5%→95%→5% RH)): mixture of Forms B and C | Mass change, first sorption step ([1]; Expt. 2 (5%→95%→5% RH), between 45-85% RH): 6.45% | Water molecules, first sorption step ([1]; Expt. 2, between 45-85% RH): 2.1 water molecules | Total change in mass, second sorption step ([1]; Expt. 2, between 85% and 95% RH): 16.7% | Total change in mass at 95% RH ([1]; Expt. 3): 15.88% | Total change in mass at 95% RH as water molecules ([1]; Expt. 3): 5.15 water molecules | Solid form after DVS cycle (XRPD) ([1]; Expt. 3 (5%→95% RH)): Forms B+C | Change in mass, first step ([1]; Expt. 3 (5%→95% RH), between 45-85% RH): 5.59% | Water molecules, first step ([1]; Expt. 3, between 45-85% RH): 1.8 water molecules | Maximum change in mass as water molecules ([1]; Expt. 4): 7.2 water molecules | Solid form after DVS cycle (XRPD) ([1]; Expt. 4): Forms C+D | Maximum change in mass ([1]; Expt. 4 (longer equilibration; up to 95% RH for 5 h)): 22.2% | Hygroscopicity [1]: hygroscopic | Solid form after humidity exposure ([2]; 90% RH for one day): converted to a mixture of Forms C and D | Solid form conversion in slurry with Form A (XRPD, wet) ([3]; all organic solvents and water at 37° C., sampled at 2, 4 and 14 days): converted to Form A | Solid form conversion in slurry with Form A (XRPD, wet) ([3]; water at 25° C. (aqueous environment), 2 and 4 days): converted to Form D | Humidity level at which Form B converts to the hydrated Forms C and D (Variable humidity XRPD; 30° C., reversible): above 60 % RH | RH at which Form B starts to convert to hydrated Form C (sorption) (Variable humidity XRPD; [11]): about 65 % RH | RH at which Form C starts to dehydrate to Form B (desorption) (Variable humidity XRPD; [11]): about 30 % RH | RH at which conversion to Form B was complete (desorption) (Variable humidity XRPD; [11]): 10 % RH | RH at which conversion to Form C was complete (sorption) (Variable humidity XRPD; [11]): 80 % RH
SMILES: COc1cc(N2CCC(N3CCN(C)CC3)CC2)ccc1Nc1ncc(Cl)c(Nc2ccccc2P(C)(C)=O)n1 [Form B, brigatinib]
Solid form conversion on slurrying (XRPD, wet) ([2]; room temperature, water, HCl buffer of pH 1.0): converted to the heptahydrate Form D after 45 min

Concentration at 10 min [4]: 70 µg/mL | Concentration at 20 h [4]: 140 µg/mL | Phase transformation on heating (VT-XRPD) (25 to 200° C.): did not reveal any phase transformation | Amount that could be dissolved in the stomach together with a 200 ml glass of water ([5]; numbers are only indicative): about 50 mg | Concentration reached in IDR measurement ([5]; pH 1.0 and SGF, within 5 min): ~250 µg/mL | Solid form stability when slurried (IDR experiments) ([5]; water, SGF, and pH 1.0 aqueous buffer): remains stable | Hygroscopicity (DVS) ([1]; 5% to 95% RH, then to 5% RH, 25° C., 60 minutes per step): not hygroscopic | Hygroscopicity [1]: not hygroscopic | Solid state after grinding (XRPD) [6]: almost completely amorphous | solubility (physchem [7]; pH 1.7, simulated gastric fluid): 177 mg/mL (≈ 303 mM) | solubility (physchem [7]; pH 2.4, aqueous buffer): 329 mg/mL (≈ 563 mM) | solubility (physchem [7]; pH 3.6, aqueous buffer): 173 mg/mL (≈ 296 mM) | solubility (physchem [7]; pH 6.2, aqueous buffer): 8 mg/mL (≈ 13.7 mM) | solubility (physchem [7]; pH 7.2, aqueous buffer): 11 mg/mL (≈ 18.8 mM) | solubility at 24 h (physchem [8]; 25 °C, pH 1, simulated gastric fluid): 60.4 ± 2.9 mg/mL (≈ 103 mM) | solubility at 24 h (physchem [8]; 25 °C, pH 4.5, aqueous buffer): 24.4 ± 1.2 mg/mL (≈ 41.8 mM) | solubility at 24 h (physchem [8]; 25 °C, pH 6.8, aqueous buffer): 8.6 ± 1.4 mg/mL (≈ 14.7 mM) | solubility at 24 h (physchem [8]; 25 °C, water): 0.11 mg/mL (≈ 0.188 mM) | solubility at 24 h (physchem [8]; [12]): 70.6 ± 1.5 mg/mL (≈ 121 mM) | solubility (physchem [8]; [12]): 70 mg/mL (≈ 120 mM) | solubility at 24 h (physchem [8]; 37 °C, pH 4.5, aqueous buffer): 26 mg/mL (≈ 44.5 mM) | solubility (physchem [8]; 37 °C, pH 4.5, aqueous buffer): 26 mg/mL (≈ 44.5 mM) | solubility (physchem [8]; 37 °C, pH 6.5, aqueous buffer): 6 mg/mL (≈ 10.3 mM) | solubility at 24 h (physchem [8]; 37 °C, pH 6.8, aqueous buffer): 6.2 ± 0.1 mg/mL (≈ 10.6 mM) | solubility at 24 h (physchem [8]; 37 °C, simulated gastric fluid): 51.7 ± 0.6 mg/mL (≈ 88.5 mM) | solubility (physchem [8]; simulated gastric fluid): 52 mg/mL (≈ 89 mM) | Solub [9]: 0.1 ± 0.0 mg/mL | solid form (XRPD, analyzed wet) ([3]; 2 Days): A + D | solid form (XRPD, analyzed wet) ([3]; 4 days): A + D | Phase transition with humidity (VH-XRPD) (Variable humidity XRPD; 30 and 60° C.): did not show any phase transition | Mass loss by TGMS after humidity exposure (water adsorbed) (Variable humidity XRPD; exposed for 2 h at 80% RH): 0.35% | Water molecules adsorbed after humidity exposure (Variable humidity XRPD; exposed for 2 h at 80% RH): 0.1 water molecules | Phase transformation under pressure (XRPD) (Compression tests): no phase transitions or peak shifts
SMILES: COc1cc(N2CCC(N3CCN(C)CC3)CC2)ccc1Nc1ncc(Cl)c(Nc2ccccc2P(C)(C)=O)n1 [Form A, brigatinib]
Purity by HPLC after compression (Compression tests): comparable to that of the starting material

— patent publication US11427605B2, “Crystalline forms of 5-chloro-N4-[-2-(dimethylphosphoryl) phenyl]-N2-{2-methoxy-4-[4-(4-methylpiperazin-1-yl) piperidin-1-yl] phenyl} pyrimidine-2,4-diamine” (ARIAD Pharmaceuticals, Inc., priority 2014, dated 2022)
